Consider two compounds from patent US4699910A, “N-(3-trifluoromethyl-phenyl)-N'-propargyl-piperazine and salts thereof useful as analgesics” (Boehringer Ingelheim KG, priority 1983, dated 1987).

Holding throughout (type): in vivo
The nature of assay [1]: Writhing test (analgesia). A general note: Writhing tests count abdominal constrictions after an irritant is injected.
A further assay in a line: Gait test (analgesia). The conditions noted are these: sc. The text has this:
Atkinson, D. C., and Cowan, A. J., Pharm. Pharmacol. 26, 727-728 (1974)

The next assay relates to Rabbit's tooth pulp. Briefly: Rabbit's tooth pulp test (analgesia). The conditions noted are these: s.c. The text has this: 3. Rabbit's tooth pulp test
Hoffmeister, F., Arzneimittelf. 16 (supplement), 1968.

[2] abbreviates: po, read-out: Writhing test ED50 p.o.
[3] abbreviates: sc, read-out: Writhing test ED50 s.c.

For the compound `C#CCN1CCN(c2cccc(C(F)(F)F)c2)CC1.Cl` [N-(3-Trifluoromethyl-phenyl)-N'-propargyl-piperazine hydrochloride], the values for the ED50 (in assay [1] (setting [2]); in assay [1] (setting [3]); in “Gait test (analgesia)”) were 43 mg/kg, 5.3 mg/kg and 2.8 mg/kg, respectively. Moreover, the “Rabbit's tooth pulp test EDIV” value with Rabbit's tooth pulp is on record as “approx. 10”.

With `Cc1c(N(C)CS(=O)(=O)O)c(=O)n(-c2ccccc2)n1C` [Metamizole-sodium (Novalgin ®)], the ED50 – broadly, the dose that gives a 50% effect, or the effect in half of the subjects – stood at 80 mg/kg in assay [1] (setting [2]), 25 mg/kg in assay [1] (setting [3]) and 97 mg/kg in “Gait test (analgesia)”. Further, the “Rabbit's tooth pulp test EDIV” value with Rabbit's tooth pulp is listed as “approx. 560”.
